Each structure is given as a SMILES string.

For this assay, the system named is HIV in the HTLV-1 transformed cell line MT-4. Briefly: organism not typed. In kind it is cell-based. The following applies: MT-4 cells, luciferase/cell titer glo readout after 96 hours, 10 point dose response.

Under “MT4, 96 h”, `COc1cc(C(=O)N2Cc3c(C)c(-c4cc(F)c5c(c4C)CCCO5)c([C@H](OC(C)(C)C)C(=O)O)c(C)c3C2)ccc1C` (atropisomer, axis not shown; (M)) [Example 156, (S)-2-(tert-butoxy)-2-(6-((M)-8-fluoro-5-methylchroman-6-yl)-2-(3-methoxy-4-methylbenzoyl)-4,7-dimethylisoindolin-5-yl)acetic acid] yielded an IC50 of 3 nM.

Regarding `Cc1ccc(-c2c(C)c3c(c(C)c2[C@H](OC(C)(C)C)C(=O)O)CN(C(=O)c2ccc4c(c2)OCO4)C3)cc1` [Example 265, (S)-2-(2-(benzo[d][1,3]dioxole-5-carbonyl)-4,7-dimethyl-6-(p-tolyl)isoindolin-5-yl)-2-(tert-butoxy)acetic acid], the 50% inhibitory concentration (IC50) (MT4, 96 h) was determined as 4 nM.

In turn, `Cc1c(-c2c(C)c3c(c(C)c2[C@H](OC(C)(C)C)C(=O)O)CN(C(=O)c2cccc(F)c2F)C3)cc(F)c2c1CCCO2` (atropisomer, axis not shown; (M)) [Example 176, (S)-2-(tert-butoxy)-2-((M)-2-(2,3-difluorobenzoyl)-6-(8-fluoro-5-methylchroman-6-yl)-4,7-dimethylisoindolin-5-yl)acetic acid] came in with a 50% inhibitory concentration (IC50) (MT4, 96 h) of 4 nM. This counts as single-digit nanomolar.

Regarding `Cc1ccc(-c2c(C)c3c(c(C)c2[C@H](OC(C)(C)C)C(=O)O)CN(C(=O)N2C[C@H](C)O[C@@H](C)C2)C3)cc1` [Example 73, (2S)-2-(tert-butoxy)-2-{2-[(2S,6S)-2,6-dimethylmorpholine-4-carbonyl]-4,7-dimethyl-6-(4-methylphenyl)-2,3-dihydro-1H-isoindol-5-yl}acetic acid], the concentration for half-maximal inhibition (IC50) (MT4, 96 h) turned out to be 26 nM. This IC50 lies about 6.5-fold higher than the previous one.

On to `Cc1c(-c2c(C)c3c(c(C)c2[C@H](OC(C)(C)C)C(=O)O)CN(C(=O)c2ccc(F)c(Cl)c2)C3)cc(F)c2c1CCCO2` (atropisomer, axis not shown; (M)) [Example 171, (S)-2-(tert-butoxy)-2-((M)-2-(3-chloro-4-fluorobenzoyl)-6-(8-fluoro-5-methylchroman-6-yl)-4,7-dimethylisoindolin-5-yl)acetic acid], for which the 50% inhibitory concentration (IC50) (MT4, 96 h) was 2 nM.

For the molecule `CNC(=O)c1cccc(CN2Cc3c(C)c(-c4ccc(C)cc4)c([C@H](OC(C)(C)C)C(=O)O)c(C)c3C2)c1` [Example 43, (2S)-2-(tert-butoxy)-2-(4,7-dimethyl-2-{[3-(methylcarbamoyl)phenyl]methyl}-6-(4-methylphenyl)-2,3-dihydro-1H-isoindol-5-yl)acetic acid], where the note is “MT4, 96 h”, 937 nM corresponded to half-maximal inhibition (IC50).

As to `Cc1ccc(-c2c(C)c3c(c(C)c2C(OC(C)(C)C)C(=O)O)CN(S(=O)(=O)c2cccc4ccccc24)C3)cc1` (centres unmarked) [Example 5, 2-(tert-Butoxy)-2-(4,7-dimethyl-2-(naphthalen-1-ylsulfonyl)-6-(p-tolyl)isoindolin-5-yl)acetic acid], the half-maximal inhibitory concentration (IC50) was 42 nM.

As for `Cc1ccc(-c2c(C)c3c(c(C)c2[C@H](OC(C)(C)C)C(=O)O)CN(C(=O)c2ccc(F)cc2)C3)cc1` [Example 254, (S)-2-(tert-butoxy)-2-(2-(4-fluorobenzoyl)-4,7-dimethyl-6-(p-tolyl)isoindolin-5-yl)acetic acid], the IC50 (MT4, 96 h) is 4 nM. In other words, the single-digit nanomolar range.

In turn, `Cc1c(-c2c(C)c3c(c(C)c2[C@H](OC(C)(C)C)C(=O)O)CN(C(=O)c2ccc4c(cnn4C)c2)C3)cc(F)c2c1CCCO2` (atropisomer, axis not shown; (M)) [Example 154, (S)-2-(tert-butoxy)-2-((M)-6-(8-fluoro-5-methylchroman-6-yl)-4,7-dimethyl-2-(1-methyl-1H-indazole-5-carbonyl)isoindolin-5-yl)acetic acid] gave a half-inhibitory concentration (IC50) (MT4, 96 h) of 8 nM.

`Cc1ccc(-c2c(C)c3c(c(C)c2[C@H](OC(C)(C)C)C(=O)O)CN(C(=O)N2C[C@H](C)OC[C@H]2C)C3)cc1` [Example 88, (S)-2-(tert-butoxy)-2-(2-((2S,5R)-2,5-dimethylmorpholine-4-carbonyl)-4,7-dimethyl-6-(p-tolyl)isoindolin-5-yl)acetic acid] came in with an IC50 (MT4, 96 h) of 18 nM.

On to `Cc1ccc(-c2c(C)c3c(c(C)c2[C@H](OC(C)(C)C)C(=O)O)CN(Cc2cccc(-c4ccccc4)c2)C3)cc1` [Example 29, (S)-2-(2-([1,1′-biphenyl]-3-ylmethyl)-4,7-dimethyl-6-(p-tolyl)isoindolin-5-yl)-2-(tert-butoxy)acetic acid], for which the IC50 (MT4, 96 h) was 184 nM.

Take `Cc1ccc(-c2c(C)c3c(c(C)c2[C@H](OC(C)(C)C)C(=O)O)CN(C(=O)c2ccc(F)c(F)c2)C3)cc1` [Example 261, (S)-2-(tert-butoxy)-2-(2-(3,4-difluorobenzol)-4,7-dimethyl-6-(p-tolyl)isoindolin-5-yl)acetic acid]: where the note is “MT4, 96 h”, the half-maximal inhibitory concentration (IC50) was 4 nM.

`Cc1ccc(-c2c(C)c3c(c(C)c2[C@H](OC(C)(C)C)C(=O)O)CN(C2CCC[C@@H](C)C2)C3)cc1` (stereo partly drawn) [Example 32, (2S)-2-(tert-butoxy)-2-(4,7-dimethyl-2-((3R)-3-methylcyclohexyl)-6-(p-tolyl)isoindolin-5-yl)acetic acid] came in with a half-inhibitory concentration (IC50) (MT4, 96 h) of 723 nM.

`Cc1c(-c2c(C)c3c(c(C)c2[C@H](OC(C)(C)C)C(=O)O)CN(C(=O)C2CCCCC2)C3)cc(F)c2c1CCCO2` (atropisomer, axis not shown; (M)) [Example 137, (S)-2-(tert-butoxy)-2-((M)-2-(cyclohexanecarbonyl)-6-(8-fluoro-5-methylchroman-6-yl)-4,7-dimethylisoindolin-5-yl)acetic acid] displayed a concentration for half-maximal inhibition (IC50) (MT4, 96 h) of 2 nM.

As to `Cc1ccc(-c2c(C)c3c(c(C)c2[C@H](OC(C)(C)C)C(=O)O)CN(C(=O)N2CCC(Cc4ccccc4)CC2)C3)cc1` [Example 95, (S)-2-(2-(4-benzylpiperidine-1-carbonyl)-4,7-dimethyl-6-(p-tolyl)isoindolin-5-yl)-2-(tert-butoxy)acetic acid], the concentration for half-maximal inhibition (IC50) (MT4, 96 h) came out at 778 nM. Compared with the last molecule, the IC50 is about 390-fold higher.

Turning to `Cc1c(-c2c(C)c3c(c(C)c2[C@H](OC(C)(C)C)C(=O)O)CN(C(=O)c2cc(F)c(Cl)c(F)c2)C3)cc(F)c2c1CCCO2` (atropisomer, axis not shown; (M)) [Example 175, (S)-2-(tert-butoxy)-2-((M)-2-(4-chloro-3,5-difluorobenzoyl)-6-(8-fluoro-5-methylchroman-6-yl)-4,7-dimethylisoindolin-5-yl)acetic acid], the 50% inhibitory concentration (IC50) (MT4, 96 h) was 5 nM. Compared with the last molecule, the IC50 is about 160-fold lower.

As to `Cc1ccc(-c2c(C)c3c(c(C)c2[C@H](OC(C)(C)C)C(=O)O)CN(Cc2cccc(N4CCOCC4)c2)C3)cc1` [Example 46, (2S)-2-(tert-butoxy)-2-[4,7-dimethyl-6-(4-methylphenyl)-2-{[3-(morpholin-4-yl)phenyl]methyl}-2,3-dihydro-1H-isoindol-5-yl]acetic acid], the IC50 (MT4, 96 h) is 4080 nM.

Molecule `Cc1c(-c2c(C)c3c(c(C)c2[C@H](OC(C)(C)C)C(=O)O)CN(C(=O)c2cccc(F)c2)C3)cc(F)c2c1CCCO2` (atropisomer, axis not shown; (M)) [Example 103, (2S)-2-(tert-butoxy)-2-((M)6-(8-fluoro-5-methylchroman-6-yl)-2-(3-fluorobenzoyl)-4,7-dimethylisoindolin-5-yl)acetic acid] had a half-inhibitory concentration (IC50) (MT4, 96 h) of 2 nM.

Where the note is “MT4, 96 h”, `Cc1cc(F)cc(C(=O)N2Cc3c(C)c(-c4cc(F)c5c(c4C)CCCO5)c([C@H](OC(C)(C)C)C(=O)O)c(C)c3C2)c1` (atropisomer, axis not shown; (M)) [Example 178, (S)-2-(tert-butoxy)-2-((M)-2-(3-fluoro-5-methylbenzoyl)-6-(8-fluoro-5-methylchroman-6-yl)-4,7-dimethylisoindolin-5-yl)acetic acid] came in with an IC50 of 2 nM.

Consider `COc1cc(C(=O)N2Cc3c(C)c(-c4cc(F)c5c(c4C)CCCO5)c([C@H](OC(C)(C)C)C(=O)O)c(C)c3C2)ccc1F` (atropisomer, axis not shown; (M)) [Example 180, (S)-2-(tert-butoxy)-2-((M)-2-(4-fluoro-3-methoxybenzoyl)-6-(8-fluoro-5-methylchroman-6-yl)-4,7-dimethylisoindolin-5-yl)acetic acid], for which the midpoint of inhibition (MT4, 96 h), the IC50, lay at 4 nM.

Regarding `Cc1ccc(-c2c(C)c3c(c(C)c2[C@H](OC(C)(C)C)C(=O)O)CN(C(=O)Cc2cccc(F)c2)C3)cc1` [Example 233, (S)-2-(tert-butoxy)-2-(2-(2-(3-fluorophenyl)acetyl)-4,7-dimethyl-6-(p-tolyl)isoindolin-5-yl)acetic acid], under “MT4, 96 h”, half-maximal inhibition (IC50) required 12 nM.

The molecule `Cc1ccc(-c2c(C)c3c(c(C)c2[C@H](OC(C)(C)C)C(=O)O)CN(C(=O)N2CCOC[C@H]2C)C3)cc1` [Example 72, (2S)-2-(tert-butoxy)-2-{4,7-dimethyl-2-[(3R)-3-methylmorpholine-4-carbonyl]-6-(4-methylphenyl)-2,3-dihydro-1H-isoindol-5-yl}acetic acid] yielded a half-maximal inhibitory concentration (IC50) (MT4, 96 h) of 16 nM. The IC50 values of the last two molecules are within 1.5-fold of each other.

`COc1cc(F)cc(C(=O)N2Cc3c(C)c(-c4cc(F)c5c(c4C)CCCO5)c([C@H](OC(C)(C)C)C(=O)O)c(C)c3C2)c1` (atropisomer, axis not shown; (M)) [Example 140, (S)-2-(tert-butoxy)-2-((M)-2-(3-fluoro-5-methoxybenzoyl)-6-(8-fluoro-5-methylchroman-6-yl)-4,7-dimethylisoindolin-5-yl)acetic acid] came in with a concentration for half-maximal inhibition (IC50) (MT4, 96 h) of 2 nM.

As to `Cc1c(-c2c(C)c3c(c(C)c2[C@H](OC(C)(C)C)C(=O)O)CN(C(=O)NCC(C)(C)C)C3)cc(F)c2c1CCCO2` (atropisomer, axis not shown; (M)) [Example 207, (S)-2-(tert-butoxy)-2-((M)-6-(8-fluoro-5-methylchroman-6-yl)-4,7-dimethyl-2-(neopentylcarbamoyl)isoindolin-5-yl)acetic acid], the midpoint of inhibition (MT4, 96 h), the IC50, lay at 4 nM.

Molecule `Cc1ccc(-c2c(C)c3c(c(C)c2[C@H](OC(C)(C)C)C(=O)O)CN(C(=O)N2CCC[C@H]2C)C3)cc1` [Example 292, (S)-2-(tert-butoxy)-2-(4,7-dimethyl-2-((R)-2-methylpyrrolidine-1-carbonyl)-6-(p-tolyl)isoindolin-5-yl)acetic acid] yielded an IC50 (MT4, 96 h) of 5 nM.

On to `Cc1ccc(-c2c(C)c3c(c(C)c2[C@H](OC(C)(C)C)C(=O)O)CN(C(=O)c2cc(F)cc(Cl)c2)C3)cc1` [Example 226, (S)-2-(tert-butoxy)-2-(2-(3-chloro-5-fluorobenzoyl)-4,7-dimethyl-6-(p-tolyl)isoindolin-5-yl)acetic acid], for which half-maximal inhibition (MT4, 96 h) (IC50) was put at 5 nM.

Source of the values: patent US10112899B2 (ViiV HEALTHCARE UK LIMITED, priority 2014, dated 2018).
